Source: patent US11738065B2, “Polypeptides and analogues thereof for use in the treatment of diabetes and bone disorders” (UNIVERSITY OF ULSTER, priority 2015, dated 2023)
Where no end group is shown, it is not given here. [ ]: non-standard residue; d: D form.

Experiments:
lean control mice [1] = test: Acute and persistent glucose lowering and insulin releasing effects in lean control mice; assay type: in vivo
Experimental: All animal experiments were carried out in accordance with the UK Animals (Scientific Procedures) Act 1986. For food intake studies, fasted (18 h) mice were given intraperitoneal (i.p) injections of polypeptides at a dose of 25, 100 or 250 nmol/kg bw. Mice were then allowed free access to normal chow for 180 mins and cumulative food intake measured. […] Blood samples were collected from the cut tip on the tail vein of conscious mice into chilled fluoride/heparin glucose micro-centrifuge tubes (Sarstedt, Numbrecht, Germany) at the time points indicated in the Drawings. Blood glucose was measured directly using a hand-held Ascencia Contour blood glucose meter (Bayer Healthcare, Newbury, Berkshire, UK).

BRIN-BD11 cells = test: In vitro insulin secretion from BRIN-BD11 cells; assay type: cell-based; details: 10^−6 mol/l peptide, 20 min, vs 5.6 and 16.7 mmol/l glucose control
Experimental: BRIN-BD11 cells were used to assess the insulin releasing activity of polypeptides as described by […] et al., 1996 (Diabetes. 1996 August; 45(8):1132-40). Cells were cultured in RPMI-1640 growth media supplemented with 10% (v/v) foetal bovine serum (FBS) and 1% (v/v) antibiotics (penicillin (100 U/ml), streptomycin ([…])), in 75 cm2 sterile tissue culture flasks (Greiner bio-one, UK) maintained at 37° C. and 5% CO2 in a LEEC incubator (Laboratory technical engineering, Nottingham, UK). BRIN-BD11 cells were then seeded at a density of 150,000 cells/well in 24-well plates (Nunc, Roskilde, Denmark) and allowed to attach overnight at 37° C.

lean control mice [2] = test: Acute food intake in lean control mice; assay type: in vivo; details: 250 nmol/kg i.p.
Experimental: Acute animal studies were conducted in male NIH Swiss mice (12-14 weeks old, Harlan Ltd, UK) maintained on a standard rodent maintenance diet (10% fat, 30% protein and 60% carbohydrate, Trouw Nutrition, Cheshire, UK). […] All animals were housed individually in an air-conditioned room at 22±2° C. with a 12 h light:12 h dark cycle and had free access to food and water. All animal experiments were carried out in accordance with the UK Animals (Scientific Procedures) Act 1986.

SaOS-2 cells [3] = test: IGF-1 release from SaOS-2 cells; assay type: cell-based, Human; details: 1e-12-1e-6 M, 8 hours
Experimental: SaOS-2 cells were seeded at a density of 2e5 cells/well in 6-well plates in 10% FBS containing media. Media were changed 24 hours prior to experimentation with 0.1% FBS. Media was then removed, followed by an addition of 1 ml of test peptides of the invention (1e-12-1e-6 M). Plates were incubated at 37° C. for 8 hours. After incubation, media was collected and IGF-1 released in the supernatant was measured using IGF-1 Immunoassay kit (Quantikine, R&D Systems) according to the manufacturer's instructions. The concentration of IGF-1 in the samples was determined from a standard curve of recombinant human IGF-1 in the range of 0-60 ng/ml.

high fat fed mice [4] = test: DEXA bone mineral density and content after 42 days treatment; assay type: in vivo; details: P<0.05 and P<0.01 respectively
Experimental: The DEXA (dual energy X-ray absorptiometry) analysis [Lunar PIXImus, Inside Outside Sales] was performed on unconscious mice and the whole body was scanned. Various parameters like bone mineral density (BMD), bone mineral content (BMC), lean mass, fat mass and percentage of total fat were measured according to the manufacturer's instructions.

SaOS-2 cells [5] = test: cAMP production in SaOS-2 cells; assay type: cell-based, Human; details: 60 min, 200 μM IBMX
Experimental: SaOS-2 cells were seeded at a density of 5e4 cells in 96-well plates. Cells were cultured in α-MEM 1× media supplemented with 10% FBS for 24 hours in order to allow attachment to the plate. Before the experiment, cells were washed with Hank's Balanced Salt Solution (HBSS). Cells were then incubated with various concentrations (1e-12-1e-6 M) of test peptides of the invention supplemented with 200 μM of 3-isobutyl-1-methylxanthine (IBMX). Plates were then incubated for 60 minutes at 37° C. Following this step, cells were washed 3 times with 150 μl PBS. Cell lysis was performed with 150 μl cell lysis buffer (R&D Systems) and a freeze (−20° C.)-thaw (37° C.) cycle was carried out. The contents were then collected into 500 μl tubes and centrifuged at 600 rpm for 10 min (4° C.). The supernatant was collected and cAMP was measured using a cAMP assay kit (R&D Systems) according to the manufacturer's instructions. The concentration of cAMP was calculated from a standard curve of cAMP ranging from 0 to 240 pmol/ml.

SaOS-2 cells [6] = test: TGF-β release from SaOS-2 cells; assay type: cell-based, Human; details: 1e-12-1e-6 M, 8 hours
Experimental: Human osteoblast SaOS-2 cells [sourced from The European Collection of Cell Cultures (ECACC)] were seeded at a density of 2e5 cells/well in 24 well plates [Nunc, Roskilde, Denmark]. The cells were incubated in media [Life Technologies] supplemented with 10% FBS. Before adding test peptides of the invention, the media were changed with fresh 0.1% FBS-containing media 24 h previously. On the day of experimentation, media were removed and 1 ml of respective peptides of the invention GIP/Xenin, GIP/Xenin Asp and GIP/Xenin Glu [(DAla2)GIP/xenin-8-Gln, (DAla2)GIP/xenin-8-Gln(L-Asp), and (DAla2)GIP/xenin-8-Gln(L-Glu) respectively] (1e-12-1e-6 M) were added to each well. The plates were then incubated at 37° C. for a period of 8 hours. After incubation, media was collected and TGF-β released in the supernatant measured using a TGF-β Immunoassay kit (Quantikine, R&D Systems) according to the manufacturer's instructions. The concentration of TGF-β was calculated from a standard curve of recombinant human TGF-β ranging from […].

high fat fed mice [7] = test: Glucose tolerance test after 42 days treatment; assay type: in vivo
Experimental: FIG. 14A-14B illustrate tests conducted after once daily treatment with saline, GIP/Xenin hybrid, GIP/Xenin hybrid Asp and GIP/Xenin hybrid Glu for 42 days. (FIG. 14A) Blood glucose before and after i.p injection of glucose (18 mmol/kg bw) alone in 18 hr fasted mice. (FIG. 14B) AUC values for blood glucose for 0-105 min are shown in insets. Values represent means±SEM for 6-7 mice. *P<0.05, **P<0.01 and ***P<0.001 compared to saline control;

high fat fed mice [8] = test: Microcomputed tomography of tibia trabecular and cortical bone after 42 days treatment; assay type: in vivo; details: microCT
Experimental: The tibia was used to investigate trabecular and cortical bone microstructural morphology by microCT analysis with a Skyscan 1172 microtomograph (Bruker, Kontich, Belgium) equipped with an X-ray tube working at 69 kV/100 μA. The pixel size was fixed at 8.3 μm, the rotation step at 0.25° and exposure was performed with a 0.5-mm aluminum filter. Bone mass and morphometry parameters were calculated with the CTan software (release 1.11.4.2, Bruker). The trabecular parameters were assessed at the volume of interest (VOI), located 1 mm below the growth plate and spanning 2.5 mm in height. Trabecular bone volume (BV/TV, in %), trabecular number (Tb.N, in 1/mm) and trabecular separation (Tb.Sp, in μm) were measured according to guidelines and nomenclature proposed by the American Society for Bone and Mineral Research. Cortical parameters were determined at the midshaft tibia with a lab-made routine using ImageJ. […] (Ma.Ar), cortical area (Ct.Ar), total area (Tt.Ar), cortical thickness (Ct.Th, in μm) and cross-sectional moment of inertia (J in mm4) were also measured according to guidelines and nomenclature on bone histomorphometry proposed by the American Society for Bone and Mineral Research.

high fat fed mice [9] = test: Insulin tolerance test after 42 days treatment; assay type: in vivo; details: insulin 25 U/kg i.p., non-fasted
Experimental: FIG. 15A-15B illustrate Blood glucose (FIG. 15A) and blood glucose AUC (FIG. 15B) values for 0-105 min (shown in inset) following 42 days treatment with saline, GIP/Xenin hybrid, GIP/Xenin hybrid Asp and GIP/Xenin hybrid Glu (each peptide at 25 nmol/kg bw), and subsequent insulin (25 U/kg bw) injection intraperitoneally (at t=0) in non-fasted mice. Values represent means±SEM for 5 mice. *P<0.05, **P<0.01 and ***P<0.001 compared to saline control;

high fat fed mice [10] = test: Three-point bending of bone after 42 days treatment; assay type: in vivo
Experimental: Femur and tibia bones were extracted at the end of the experiment using a scalpel and fine scissors, soft tissue removed and stored in 70% ethanol. Three-point bending strength was measured with a constant span length of 10 mm. Femurs were positioned horizontally with the anterior surface facing upwards, centered on the support and the pressing force was applied vertically to the midshaft of the bone. Each bone was tested with a loading speed of 2 mm/min until failure with a 90 N load cell. The load-time curve obtained was converted into a load-displacement curve by the MTS testSuite TW software (MTS, Créteil, France). Ultimate load and ultimate displacement were respectively defined as the maximum load and maximum displacement recorded before break-down of the bone. Stiffness was calculated as the slope of the elastic deformation of the bone. The total absorbed energy was defined as the total area under the load-displacement curve and represents the total energy absorbed by the midshaft femur. The yield was defined as the load necessary to initiate the transformation from elastic to plastic deformation. The post-yield energy was defined as the area under the load-displacement curve from yield until failure and represents the energy absorbed by bone during plastic deformation.

high fat fed mice [11] = test: 42 day once daily study in high fat fed mice (body weight, composition, food intake, non-fasting glucose); assay type: in vivo; details: 25 nmol/kg once daily, 42 days
Description: (§1) FIG. 10 illustrates body weight as measured for 3 days before and 42 days during (indicated by black horizontal bar) once daily treatment with saline vehicle (0.9% w/v NaCl), GIP/Xenin hybrid, GIP/Xenin hybrid Asp and GIP/Xenin hybrid Glu (each peptide at 25 nmol/kg bw). Values represent means±SEM for 5 mice;
FIG. 11A-11B illustrate (FIG. 11A) % Fat mass and (FIG. 11B) % Lean mass as measured by DEXA scanning in high fat fed mice following 42 days treatment with GIP/Xenin hybrid, GIP/Xenin hybrid Asp and GIP/Xenin hybrid Glu. Values represent means±SEM for 3-5 mice;
as §1, with “12” for “10”, “cumulative energy intake” for “body weight”, “days” for “days during”, “bar) during” for “bar)”, “3-5 mice. ^ΔP<0.05, ^ΔΔP<0.01, ^ΔΔΔP<0.001 compared to saline control;” for “5 mice;”
as §1, with “13” for “10”, “non fasting blood glucose” for “body weight”, “mice; […]” for “mice;”

Substance	Glucose lowering or insulin releasing effects, peptide 4 h prior to glucose load (lean control mice [1]; 25 nmol/kg 4 h before glucose 18 mmol/kg)	Blood glucose at 30 min post injection (lean control mice [1]; 25 nmol/kg with glucose 18 mmol/kg i.p., non-fasted mice, vs glucose alone)	Overall 0-105 min AUC blood glucose (lean control mice [1]; 25 nmol/kg with glucose 18 mmol/kg i.p., vs glucose alone)	Insulin secretion from BRIN-BD11 cells (BRIN-BD11 cells)	Cumulative food intake at 120 min post-injection (lean control mice [2])	IGF-1 release from SaOS-2 cells (SaOS-2 cells [3])	Tibia bone mineral density (high fat fed mice [4])	Lowest effective concentration for cAMP production (SaOS-2 cells [5])	TGF-β release from SaOS-2 cells (SaOS-2 cells [6])	Blood glucose concentrations after glucose challenge (high fat fed mice [7]; glucose 18 mmol/kg)	Cortical bone area, thickness and moment of inertia / structural properties of cortical bone (high fat fed mice [8])	Hypoglycaemic response to exogenous insulin (high fat fed mice [9])	Bone ultimate load and stiffness (high fat fed mice [10])	Body weight, fat and lean mass, food intake (high fat fed mice [11])	Blood glucose overall AUC after glucose challenge (high fat fed mice [7]; 0-105 min, glucose 18 mmol/kg)	Blood glucose at 30, 60 and 105 min after glucose challenge (high fat fed mice [7]; glucose 18 mmol/kg i.p.)
HIS-PRO-GLN-GLN-PRO-TRP-ILE-LEU (HPQQPWIL; listed as Homo sapiens) [xenin-8-Gln]	devoid of any beneficial glucose lowering or insulin releasing effects	significantly (P<0.05) lowered blood glucose values	significantly (P<0.05) decreased	significantly (P<0.05 to P<0.001) stimulated insulin secretion	significant (P<0.05) reductions in cumulative food intake											
TYR-(d)ALA-GLU-GLY-THR-PHE-ILE-SER-ASP-TYR-SER-ILE-ALA-MET-HIS-PRO-GLN-GLN-PRO-TRP-ILE-LEU-GLY-ALA-ALA-GLU-GLU-GLU-GLU-GLU-GLU (Y[dA]EGTFISDYSIAMHPQQPWILGAAEEEEEE; also: Gln side-chain L-Glu modification; listed as Homo sapiens) [GIP/Xenin Glu]						dose-dependently stimulated	reduced	1000 nM	dose-dependently stimulated	also reduced blood glucose concentrations, but not as effectively as GIP/Xenin Asp	reduced	more pronounced hypoglycaemic response	negative effects (P<0.05 to P<0.001)	no significant change		
TYR-(d)ALA-GLU-GLY-THR-PHE-ILE-SER-ASP-TYR-SER-ILE-ALA-MET-HIS-PRO-GLN-GLN-PRO-TRP-ILE-LEU-GLY-ALA-ALA-ASP-ASP-ASP-ASP-ASP-ASP (Y[dA]EGTFISDYSIAMHPQQPWILGAADDDDDD; also: Gln side-chain L-Asp modification; listed as Homo sapiens) [GIP/Xenin Asp]						dose-dependently stimulated	reduced	10 nM	dose-dependently stimulated					no significant change	significant (P<0.05) reduction in overall AUC measures	significantly (P<0.01 to P<0.001)
